Results: PMC12756723, “Derivatives of the Cashew Nut Shell Liquid as Ligands of Pseudomonas aeruginosa Phenazine Protein D (PaPhzD)” (ACS Omega, 2025)
Entries after “also recorded” stand apart in the source; their conditions may differ.

How the values were obtained:
[1] = test system: P. aeruginosa cells (ATCC 27853); assay: Screening of PYO production inhibitors (supernatant absorbance 691 nm); format: cell-based, Pseudomonas aeruginosa; settings: 100 μM
Experimental: P. aeruginosa cells (ATCC 27853) were inoculated by depletion on King’s A agar, and the plates were incubated at 30 °C for 24 h. Isolated colonies were collected and resuspended in sterile saline solution (0.85%) until turbidity equivalent to optical density (OD) at 600 nm, equal to 0.3 (1.5 × 10^8 CFU/mL). This bacterial suspension was diluted 10-fold and used to inoculate King’s A broth.
(§1) The potential inhibitors, previously solubilized in DMSO, were added to the culture medium after the inoculation (final concentration = 100 μM). The control group was cultured in the presence of an equivalent volume of DMSO but without the presence of potential inhibitors. The cell suspension was maintained at 30 °C under constant agitation (180 rpm) for 24 h in a 24-well plate. After this period, the OD600 was measured to evaluate bacterial growth, and in parallel, after being subjected to centrifugation, the supernatant was read in a 96-well plate at a wavelength of 691 nm. The sterile medium used for culturing the microorganism was used as a positive control, and culture medium containing 1% DMSO was used as a negative control.

[2] = test system: P. aeruginosa cells (ATCC 27853); assay: Bacterial growth (OD600) in the PYO screening culture; format: cell-based, Pseudomonas aeruginosa; settings: 100 μM
Experimental: as §1

[3] = test system: P. aeruginosa PA14; assay: Swarming assay; format: cell-based, Pseudomonas aeruginosa; settings: 100 μM
Experimental: Swarming assays were performed as described, using 6-well plates. Briefly, 3 μL of culture (OD600 = 3.0) was inoculated in the center of modified M9 (20 mM NH4Cl; 12 mM Na2HPO4; 22 mM KH2PO4; 8.6 mM NaCl; 1 mM MgSO4; 1 mM CaCl2 2 H2O; 11 mM glucose; 0.5% casamino acids (Difco)) with 0.5% of Bacto-agar (Difco), containing the respective compounds (100 μM final concentration, diluted in DMSO). Plates were incubated inside plastic bags to avoid evaporation at 30 °C for 16 h. After this period, pictures were taken, and the area covered by the colonies was measured using ImageJ. All assays were performed with four replicates, and 0.1% DMSO (v/v) was employed as a negative control.

[4] = test system: human PPAR isoforms; set-up: method as in Sahin et al. 2022 (likely, number not given); settings: previously investigated; ref Sahin et al. 2022 (likely, number not given); cited from earlier work
[5] = test system: KinA/SPOOF; set-up: method as in Kanojia et al.; settings: KinA/SPOOF from B. subtilis; ref Kanojia et al.; cited from earlier work

With `CCCCCCCCCCCCCCCc1cccc(O)c1` [Compound 2] the “Pyocyanin production, Cohen's d vs control” value ([1]; 24 h, 30 °C) was −2.56, the “Effect on pyocyanin production” value ([1]; vs DMSO control) was “decreased pyocyanin production” and the “Effect on bacterial growth” value [2] was “without affecting bacterial growth; also recorded: no significant effect on bacterial growth”. The “Swarming motility, % compared to control conditions” value [3] was 65%, the “Swarming motility, Cohen's d vs control” value [3] was −0.91 and the PPAR activity profile [4] was “do not activate PPAR receptors”. For the same compound, the IC50 [5] was greater than 500 µM.
